Consider five compounds from US9775844B2, “Heterocyclic compounds and uses thereof” (Infinity Pharmaceuticals, Inc., priority 2014, dated 2017).

Read-outs that look alike come from different tables or passages of the source.

The test system of one data set is post-irradiated tumors. Particulars: cited from earlier work.
The subject of a further data set is CCL3, CCL4, and CXCL13. Particulars: CLL; cited from earlier work.
The subject of data set [1] is haematological malignancies. Particulars: cited from earlier work.
The nature of data set [2]: Human pharmacokinetic prediction based on non-human animal studies. How it is done:
Based on non-human animal studies, a predicted human dose to achieve exposure at the IC90 for PI3K-γ is approximately 2 mg. […] In some embodiments, the dose (e.g., a therapeutically effective dose) is about 2 mg, 1-3 mg, 1-5 mg, 1-10 mg, 0.5-20 mg, 0.1-50 mg, 0.1-75 mg, 0.5-75 mg, 1-75 mg, 0.1-100 mg, 0.5-100 mg, or 1-100 mg. In some embodiments, the dose is about 1-10 mg. In some embodiments, the dose is about 1-50 mg. In some embodiments, the dose is about 1-100 mg. In a 70 kg human, a 2 mg dose corresponds to 0.029 mg/kg.

In the next data set the target is PI3K δ (Homo sapiens (Human), UniProt O00329). The experiment in a line: PI3-Kinase Promega ADP-Glo Max assay. Type of data set: biochemical.
Sequence of PI3K δ (O00329 whole entry): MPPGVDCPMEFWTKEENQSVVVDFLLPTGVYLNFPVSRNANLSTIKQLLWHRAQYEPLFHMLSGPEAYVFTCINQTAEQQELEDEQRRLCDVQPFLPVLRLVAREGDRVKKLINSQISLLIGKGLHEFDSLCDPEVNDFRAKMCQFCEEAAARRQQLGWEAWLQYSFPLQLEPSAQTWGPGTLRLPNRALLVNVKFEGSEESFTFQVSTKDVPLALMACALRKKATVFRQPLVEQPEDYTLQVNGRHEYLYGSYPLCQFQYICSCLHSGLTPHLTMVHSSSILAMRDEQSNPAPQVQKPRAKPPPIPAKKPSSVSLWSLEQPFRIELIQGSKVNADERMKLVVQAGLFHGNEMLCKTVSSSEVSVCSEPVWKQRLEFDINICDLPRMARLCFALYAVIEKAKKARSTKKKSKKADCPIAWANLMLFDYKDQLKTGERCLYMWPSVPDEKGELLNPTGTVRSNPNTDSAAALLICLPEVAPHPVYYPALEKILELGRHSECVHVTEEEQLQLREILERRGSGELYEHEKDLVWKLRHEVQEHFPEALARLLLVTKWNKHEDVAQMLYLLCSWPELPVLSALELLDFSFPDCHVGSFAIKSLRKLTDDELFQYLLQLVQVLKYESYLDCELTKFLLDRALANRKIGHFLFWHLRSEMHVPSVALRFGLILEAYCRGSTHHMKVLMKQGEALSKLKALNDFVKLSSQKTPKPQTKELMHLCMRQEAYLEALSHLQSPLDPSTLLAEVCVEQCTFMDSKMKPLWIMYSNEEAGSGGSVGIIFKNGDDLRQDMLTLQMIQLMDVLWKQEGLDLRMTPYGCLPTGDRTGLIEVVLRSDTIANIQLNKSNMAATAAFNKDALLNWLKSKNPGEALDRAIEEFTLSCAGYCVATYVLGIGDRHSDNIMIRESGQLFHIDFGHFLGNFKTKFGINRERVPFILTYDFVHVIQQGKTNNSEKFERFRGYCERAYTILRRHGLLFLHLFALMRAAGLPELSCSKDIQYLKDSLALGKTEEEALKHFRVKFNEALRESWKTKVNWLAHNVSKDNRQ
Sequence of PI3K δ (P27986 whole entry partner): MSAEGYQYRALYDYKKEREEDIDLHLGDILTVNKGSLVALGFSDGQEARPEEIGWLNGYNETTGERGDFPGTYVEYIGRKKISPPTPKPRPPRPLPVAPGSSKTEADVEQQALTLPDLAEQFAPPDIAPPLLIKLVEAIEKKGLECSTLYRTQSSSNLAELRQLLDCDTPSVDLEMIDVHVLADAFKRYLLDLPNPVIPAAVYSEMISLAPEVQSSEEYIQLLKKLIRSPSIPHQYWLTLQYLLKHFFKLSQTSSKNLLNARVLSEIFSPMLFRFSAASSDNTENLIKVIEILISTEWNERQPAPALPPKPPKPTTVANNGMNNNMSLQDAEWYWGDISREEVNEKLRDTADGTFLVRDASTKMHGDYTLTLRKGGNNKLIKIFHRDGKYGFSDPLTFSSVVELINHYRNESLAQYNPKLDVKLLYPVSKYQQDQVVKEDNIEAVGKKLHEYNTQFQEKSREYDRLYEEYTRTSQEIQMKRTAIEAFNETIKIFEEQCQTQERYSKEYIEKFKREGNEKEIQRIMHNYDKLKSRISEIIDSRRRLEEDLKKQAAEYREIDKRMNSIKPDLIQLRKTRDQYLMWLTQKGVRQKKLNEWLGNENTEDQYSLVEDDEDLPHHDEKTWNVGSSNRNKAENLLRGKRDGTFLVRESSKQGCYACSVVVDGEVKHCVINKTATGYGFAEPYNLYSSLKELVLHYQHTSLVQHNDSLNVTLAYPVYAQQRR
Data set [3] in a line: Mouse pharmacokinetics, oral single and repeat dose. In kind it is in vivo. Particulars: for tlast / AUC(0-t) / Cmax / Tmax / AUC(0-inf) / half-life: female C57 mice; for AUC(0-t): female, C57, mouse, po; for AUC(0-t) / Cmax / Tmax / AUC(0-inf) / half-life: plasma; for Cmax / Tmax / AUC(0-inf) / half-life: mouse. How it is done: Animals were weighed daily prior to dosing. […] On subsequent dosing days, the animals' condition was noted prior to dosing; the animals were observed within 4 hours of dosing, and at the end of the day.
Samples were collected at pre-dose 0.25, 0.5, 1, 2, 4, 6 and 24 h following the first dose on day 1 and pre-dose (trough), 0.25, 0.5, 1, 2, 4, 6 and 24 h following the final dose on day 3 Animals received a single oral dose daily for 3 consecutive days. Blood was collected by retro-orbital bleeding for all time points on day 1. All other blood sampling was collected by a cardiac puncture. Blood was collected into K2EDTA tubes and placed on wet ice. Within 15 min of collection, the sample was centrifuged at 10,000 rpm at 4° C. for 10 min in a bench top centrifuge and the plasma transferred to a new microcentrifuge tube.
A similar study was carried out using Compound 88. […] Below is a table that details the results for Compound 88: […]

For a further data set, the target named is PI3K α (Homo sapiens (Human), UniProt P42336). The data set can be described thus: PI3-Kinase Promega ADP-Glo Max assay. Type of data set: biochemical. A general note: ADP-Glo turns the ADP formed in a reaction into a luminescent signal.
Data set [4] addresses PI3K-γ in RAW264.7 macrophages (Mus musculus (Mouse), UniProt Q9JHG7). The experiment in a line: Raw264.7 p110 γ assay (PI3K-γ selective cellular assay, C5a-stimulated phospho-AKT). In kind it is cell-based.
From the text: Briefly, serum-starved RAW264.7 cells are stimulated with a known GPCR agonist C5a. […] Cells can be treated with test compounds prior to, simultaneously with, or subsequent to the stimulation by C5a. RAW 264.7 cells respond to the complement component fragment C5a through activation of the C5a receptor, and the C5a receptor activates macrophages and induces cell migration.
The target of the next data set is PI3K-δ in RAJI cells (Homo sapiens (Human), UniProt O00329). The data set can be described thus: RAJI p110 δ assay (PI3K-δ selective cellular assay, phospho-AKT). In kind it is cell-based. The settings on record: phospho-AKT; read-out: RAJI p110 δ assay IC50.
Sequence of PI3K-δ in RAJI cells (O00329 whole entry): as the sequence (O00329 whole entry) above
Sequence of PI3K-δ in RAJI cells (P27986 whole entry partner): as the sequence (P27986 whole entry partner) above
The target in the next data set is PI3K β (Homo sapiens (Human), UniProt P42338). The experiment in a line: PI3-Kinase Promega ADP-Glo Max assay. Type of data set: biochemical.
For another data set, the target named is PI3K γ (Homo sapiens (Human), UniProt P48736). The data set can be described thus: PI3-Kinase Promega ADP-Glo Max assay. Type of data set: biochemical.
Sequence of PI3K γ (P48736 whole entry): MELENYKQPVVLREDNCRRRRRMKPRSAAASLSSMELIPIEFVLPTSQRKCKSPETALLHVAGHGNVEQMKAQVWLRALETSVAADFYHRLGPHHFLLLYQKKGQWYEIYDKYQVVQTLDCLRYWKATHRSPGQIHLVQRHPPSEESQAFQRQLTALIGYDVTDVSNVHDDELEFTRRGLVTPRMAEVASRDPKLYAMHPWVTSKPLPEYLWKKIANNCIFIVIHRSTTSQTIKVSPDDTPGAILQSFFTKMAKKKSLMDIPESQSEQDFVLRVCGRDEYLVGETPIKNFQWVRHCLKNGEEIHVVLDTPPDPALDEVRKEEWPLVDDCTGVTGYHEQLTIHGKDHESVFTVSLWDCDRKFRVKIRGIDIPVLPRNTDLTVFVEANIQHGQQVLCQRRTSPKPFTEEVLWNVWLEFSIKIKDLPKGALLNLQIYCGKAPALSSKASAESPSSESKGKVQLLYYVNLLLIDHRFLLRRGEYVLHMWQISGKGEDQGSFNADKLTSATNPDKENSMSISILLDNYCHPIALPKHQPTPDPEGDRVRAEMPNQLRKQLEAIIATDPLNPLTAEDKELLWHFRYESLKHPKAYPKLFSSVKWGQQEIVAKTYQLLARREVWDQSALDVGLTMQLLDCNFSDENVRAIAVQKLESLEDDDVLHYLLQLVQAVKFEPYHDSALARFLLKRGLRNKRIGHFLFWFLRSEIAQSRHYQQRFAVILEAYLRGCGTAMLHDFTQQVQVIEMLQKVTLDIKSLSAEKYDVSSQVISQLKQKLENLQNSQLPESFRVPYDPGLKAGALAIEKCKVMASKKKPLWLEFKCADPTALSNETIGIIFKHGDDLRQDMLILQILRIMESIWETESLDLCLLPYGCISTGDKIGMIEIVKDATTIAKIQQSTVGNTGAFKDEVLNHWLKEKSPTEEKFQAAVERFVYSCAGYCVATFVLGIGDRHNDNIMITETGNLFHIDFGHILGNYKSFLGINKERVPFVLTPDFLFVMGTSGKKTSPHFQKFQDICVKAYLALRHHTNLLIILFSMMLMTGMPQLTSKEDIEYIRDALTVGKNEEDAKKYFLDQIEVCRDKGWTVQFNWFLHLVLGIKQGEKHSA
Another data set has as its system LLC tumor brei. The data set can be described thus: LLC tumor brei model with or without cyclophosphamide (tumor growth, FACS). In kind it is in vivo, mouse. The settings on record: Compound BB 15 mg/kg QD PO; cyclophosphamide 50 mg/kg EOD IP.

Sequence of PI3K-γ in RAW264.7 macrophages (Q9JHG7 whole entry): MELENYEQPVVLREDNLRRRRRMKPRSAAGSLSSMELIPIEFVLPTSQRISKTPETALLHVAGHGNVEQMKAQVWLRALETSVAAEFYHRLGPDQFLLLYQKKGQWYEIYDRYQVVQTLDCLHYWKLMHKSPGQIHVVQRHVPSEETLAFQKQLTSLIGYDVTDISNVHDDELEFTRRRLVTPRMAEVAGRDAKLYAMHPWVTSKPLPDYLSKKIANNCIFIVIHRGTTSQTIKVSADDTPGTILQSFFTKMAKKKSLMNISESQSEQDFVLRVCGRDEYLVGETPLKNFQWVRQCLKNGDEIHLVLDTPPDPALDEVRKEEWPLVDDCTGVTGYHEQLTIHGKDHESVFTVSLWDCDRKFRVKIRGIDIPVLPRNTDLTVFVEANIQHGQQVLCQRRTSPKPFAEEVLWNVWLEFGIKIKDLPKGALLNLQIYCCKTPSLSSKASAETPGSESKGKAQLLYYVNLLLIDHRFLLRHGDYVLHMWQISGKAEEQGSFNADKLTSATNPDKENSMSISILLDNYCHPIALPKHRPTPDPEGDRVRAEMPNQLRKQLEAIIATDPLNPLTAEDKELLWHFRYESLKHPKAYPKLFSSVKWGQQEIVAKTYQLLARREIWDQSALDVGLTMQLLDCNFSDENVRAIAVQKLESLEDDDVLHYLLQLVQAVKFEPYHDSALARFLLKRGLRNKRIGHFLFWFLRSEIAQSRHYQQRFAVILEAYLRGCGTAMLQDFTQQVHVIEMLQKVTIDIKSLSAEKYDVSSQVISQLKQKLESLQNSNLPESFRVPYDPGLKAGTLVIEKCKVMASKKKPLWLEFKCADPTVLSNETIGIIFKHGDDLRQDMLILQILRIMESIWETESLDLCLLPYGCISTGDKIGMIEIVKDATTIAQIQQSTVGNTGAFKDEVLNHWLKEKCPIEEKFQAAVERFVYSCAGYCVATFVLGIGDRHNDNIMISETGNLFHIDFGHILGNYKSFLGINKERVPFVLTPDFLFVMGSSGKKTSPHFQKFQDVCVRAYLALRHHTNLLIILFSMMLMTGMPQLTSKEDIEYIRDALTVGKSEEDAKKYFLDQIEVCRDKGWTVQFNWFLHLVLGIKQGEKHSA
Method for LLC tumor brei: In this experiment, treatment began when tumors reached approx. 150 mm^3—around day 12. Caliper and xenogen images were monitored. Treatment groups n=13-15/group. […] Samples for FACs analysis were collected on day 23 post implant. Using FACS, cells were assayed for the level of CD11b and Gr-1.
Method for PI3K α: (§1) Promega ADP-Glo Max assay kit (Cat. No. V7002) was utilized to determine IC50 values for α, β, δ and γ isoforms of human Class I PI3 kinases (Millipore). […] Reactions were incubated at room temperature for 2 hours followed by addition of 25 uL of stop solution. After a 40-minute incubation at room temperature, 50 uL of Promega detection mix was added followed by incubation for 1 hour at room temperature. Plates were then read on Envision plate reader in lunimescence mode. Data was converted to % inhibition using the following equation below:
(§2) [formula] where S is the sample luminescence, Pos is a positive control without added PI3K, Neg is the negative control without added compound. Data was then plotted as % inhibition vs compound concentration.
Method for PI3K δ: as §1, §2

In the case of `c1cc(CN2CCCNCCNCCCNCC2)ccc1CN1CCCNCCNCCCNCC1` [AMD3100], in the data set with post-irradiated tumors, the “tumor vasculogenesis and tumor regrowth” value is “blocked tumor vasculogenesis and tumor regrowth”.
Regarding `CC[C@H](Nc1ncnc2[nH]cnc12)c1nc2cccc(F)c2c(=O)n1-c1ccccc1` [CAL-101], the “expression of stromal and T-cell derived factors including CCL3, CCL4, and CXCL13” value with CCL3, CCL4, and CXCL13 is “suppresses the expression”. In [1] (CLL patients), the “lymph node and lymphocyte response in CLL patients” value was “induces rapid lymph node reduction and redistribution of lymphocytes into the circulation”. Besides, the “single agent clinical activity in lymphoma” value in data set [1] (mantle cell lymphoma and refractory non Hodgkin's lymphoma) is given as “active in mantle cell lymphoma”. The “clinical activity in CLL” value in [1] (phase 1 trial, patients with poor prognostic characteristics) is listed as “showed activity in CLL”.
On to `C[C@H](NC(=O)c1c(N)nn2cccnc12)c1cc2cccc(C#Cc3cnn(C)c3)c2c(=O)n1-c1ccccc1` [Compound 4], for which the “predicted human dose to achieve exposure at the IC90 for PI3K-γ” value in [2] was “approximately 2 mg”.
In general, IC50 refers to the concentration that inhibits the measured activity by half. The Cmax is the peak of the concentration-time curve. One may read the Tmax as the time at which the peak concentration occurs. The term AUC(0-inf) denotes the area under the concentration-time curve extrapolated to infinity. Read a high AUC(0-inf) as more exposure. In general, half-life refers to the time in which the quantity being followed falls by half. Regarding `Cc1c(C#Cc2cccc3nc([C@H](C)NC(=O)c4c(N)nn5cccnc45)n(-c4ccccc4)c(=O)c23)cnn1C` [Compound 88, (S)-2-amino-N-(1-(5-((1,5-dimethyl-1H-pyrazol-4-yl)ethynyl)-4-oxo-3-phenyl-3,4-dihydroquinazolin-2-yl)ethyl)pyrazolo[1,5-a]pyrimidine-3-carboxamide], the IC50 was 5 to 10 µM against PI3K δ; 5 to 10 µM against PI3K α; 1 to 50 nM in data set [4] (phospho-AKT, read-out: Raw264.7 p110 γ assay IC50); 100 to 500 nM on PI3K-δ in RAJI cells; 5 to 10 µM against PI3K β; 100 to 500 nM at PI3K γ. The tlast in [3] (2 mg/kg PO NMP) came out at 8 h; in data set [3] (7.5 mg/kg PO NMP) it was 24 h; in [3] (15 mg/kg PO NMP), 24 h. Also, the “stability in serum (unbound plasma concentration time course)” value in [3] (female mice, 2, 7.5, 15 mg/kg PO) was “good stability in serum”. Besides, the AUC(0-t) in [3] (2 mg/kg, 2 mg/kg PO NMP, read-out: AUC0-8) was found to be 3890 ng·h/mL; in [3] (2 mg/kg, 2 mg/kg PO NMP, read-out: AUClast) it was 3890 ng·h/mL; in [3] (7.5 mg/kg, 7.5 mg/kg PO NMP, read-out: AUC0-8), 15800 ng·h/mL; in [3] (7.5 mg/kg, 7.5 mg/kg PO NMP, read-out: AUClast), 20600 ng·h/mL; in [3] (15 mg/kg, 15 mg/kg PO NMP, read-out: AUC0-8), 34600 ng·h/mL; in [3] (15 mg/kg, 15 mg/kg PO NMP, read-out: AUClast) it was 71700 ng·h/mL. Also, the Cmax turned out to be 654 ng/mL in data set [3] (2 mg/kg PO NMP), 3700 ng/mL in [3] (7.5 mg/kg PO NMP) and 5700 ng/mL in [3] (15 mg/kg PO NMP). Also, the Tmax came to 2 h in [3] (2 mg/kg PO NMP), 1 h in data set [3] (7.5 mg/kg PO NMP) and 1 h in [3] (15 mg/kg PO NMP). The AUC(0-inf) in data set [3] (7.5 mg/kg PO NMP) was found to be 20700 ng·h/mL; in data set [3] (15 mg/kg PO NMP) it was 81200 ng·h/mL. The half-life in data set [3] (7.5 mg/kg PO NMP) is 168 min; in data set [3] (15 mg/kg PO NMP) it was 474 min. For the same compound, in data set [4], the “RAJIδ/Raw264.7 γ IC50 (selectivity)” value is recorded as “Y (key: V = 0.1 to 1; W = >1 to <10; X = 10 to <50; Y = 50 to <850)”. Besides, the “PI3K δ/PI3K γ IC50 (selectivity)” value at PI3K γ was “X (key: V = 0.1 to 1; W = >1 to <10; X = 10 to <50; Y = 50 to <850)”.
For the compound `O=P1(N(CCCl)CCCl)NCCCO1` (centres unmarked) [cyclophosphamide, reference compound], in the data set on LLC tumor brei, the “tumor growth, LLC tumor brei model” value is “reduced tumor growth”.
